Assay results taken from PubChem BioAssay (NCI).
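How tested: cells in 96-well plates exposed to compound for 48 hours at five concentrations. TGI: concentration producing complete growth inhibition.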

Key:
Experiment in all cases: growth of human tumour cells (NCI), 48 h
[1] = test system: OVCAR-3 ovarian
[2] = test system: PC-3 prostate
[3] = test system: MDA-MB-435
[4] = test system: T-47D breast
[5] = test system: SF-268 CNS
[6] = test system: SK-MEL-5 melanoma
[7] = test system: LOX IMVI melanoma
[8] = test system: HCT-116 colon
[9] = test system: A498 renal
[10] = test system: SF-295 CNS
[11] = test system: NCI/ADR-RES ovarian
[12] = test system: COLO 205 colon
[13] = test system: SK-OV-3 ovarian
[14] = test system: M14 melanoma
[15] = test system: MCF7 breast
[16] = test system: OVCAR-4 ovarian
[17] = test system: UACC-257 melanoma
[18] = test system: BT-549 breast
[19] = test system: SNB-75 CNS
[20] = test system: EKVX NSCLC
[21] = test system: SK-MEL-2 melanoma
[22] = test system: MDA-N
[23] = test system: MALME-3M melanoma
[24] = test system: SF-539 CNS
[25] = test system: UO-31 renal
[26] = test system: RXF 393 renal
[27] = test system: CAKI-1 renal
[28] = test system: HCT-15 colon
[29] = test system: SN12C renal
[30] = test system: 786-0 renal
[31] = test system: MDA-MB-231 breast
[32] = test system: NCI-H522 lung
[33] = test system: NCI-H460 lung
[34] = test system: KM12 colon
[35] = test system: A549 NSCLC
[36] = test system: OVCAR-5 ovarian
[37] = test system: HCC-2998 colon
[38] = test system: SW-620 colon
[39] = test system: MOLT-4 leukemia
[40] = test system: IGROV1 ovarian
[41] = test system: TK-10 renal
[42] = test system: SK-MEL-28 melanoma
[43] = test system: HOP-92 NSCLC
[44] = test system: HOP-62 NSCLC
[45] = test system: ACHN renal
[46] = test system: SNB-19 CNS
[47] = test system: K-562 leukemia
[48] = test system: NCI-H226 lung
[49] = test system: U251 CNS
[50] = test system: NCI-H23 lung
[51] = test system: RPMI-8226 leukemia
[52] = test system: HS 578T breast
[53] = test system: SR leukemia
[54] = test system: HT29 colon
[55] = test system: OVCAR-8 ovarian
[56] = test system: UACC-62 melanoma
[57] = test system: DU-145 prostate
[58] = test system: HL-60(TB) leukemia
[59] = test system: CCRF-CEM leukemia

Measured: TGI

C[C@@H]1OC(=O)/C(=C\N(C)C)[C@H]2CC(=O)N(CCc3cn(S(=O)(=O)C(F)(F)F)c4ccccc34)C[C@H]12
not listed: [52] | [53] | [54] | [55] | [56] | [57] | [58] | [59]
> 100 µM: all other assays above

Cc1nn(C)c2c1C(=O)N(C)CC(=O)N2C
not listed: [4] | [7] | [11] | [21] | [31] | [48]
> 100 µM: all other assays above
